Data: patent US5739278A, “Compositions for protein tyrosine phosphatases” (University of Washington, priority 1995, dated 1998)
Where a SMILES comes first, the peptide text is derived from it.

Assays:
Test in all cases: Phosphatase assay with ENDY(P)INASL as substrate
Format in all cases: biochemical
CD45 = target: T1, CD45 (Homo sapiens, UniProt P08575)
T1 construct: CD45 were purified from placenta and spleen, respectively; from tissue; host or cells: spleen
T1 sequence (P08575 26-1306): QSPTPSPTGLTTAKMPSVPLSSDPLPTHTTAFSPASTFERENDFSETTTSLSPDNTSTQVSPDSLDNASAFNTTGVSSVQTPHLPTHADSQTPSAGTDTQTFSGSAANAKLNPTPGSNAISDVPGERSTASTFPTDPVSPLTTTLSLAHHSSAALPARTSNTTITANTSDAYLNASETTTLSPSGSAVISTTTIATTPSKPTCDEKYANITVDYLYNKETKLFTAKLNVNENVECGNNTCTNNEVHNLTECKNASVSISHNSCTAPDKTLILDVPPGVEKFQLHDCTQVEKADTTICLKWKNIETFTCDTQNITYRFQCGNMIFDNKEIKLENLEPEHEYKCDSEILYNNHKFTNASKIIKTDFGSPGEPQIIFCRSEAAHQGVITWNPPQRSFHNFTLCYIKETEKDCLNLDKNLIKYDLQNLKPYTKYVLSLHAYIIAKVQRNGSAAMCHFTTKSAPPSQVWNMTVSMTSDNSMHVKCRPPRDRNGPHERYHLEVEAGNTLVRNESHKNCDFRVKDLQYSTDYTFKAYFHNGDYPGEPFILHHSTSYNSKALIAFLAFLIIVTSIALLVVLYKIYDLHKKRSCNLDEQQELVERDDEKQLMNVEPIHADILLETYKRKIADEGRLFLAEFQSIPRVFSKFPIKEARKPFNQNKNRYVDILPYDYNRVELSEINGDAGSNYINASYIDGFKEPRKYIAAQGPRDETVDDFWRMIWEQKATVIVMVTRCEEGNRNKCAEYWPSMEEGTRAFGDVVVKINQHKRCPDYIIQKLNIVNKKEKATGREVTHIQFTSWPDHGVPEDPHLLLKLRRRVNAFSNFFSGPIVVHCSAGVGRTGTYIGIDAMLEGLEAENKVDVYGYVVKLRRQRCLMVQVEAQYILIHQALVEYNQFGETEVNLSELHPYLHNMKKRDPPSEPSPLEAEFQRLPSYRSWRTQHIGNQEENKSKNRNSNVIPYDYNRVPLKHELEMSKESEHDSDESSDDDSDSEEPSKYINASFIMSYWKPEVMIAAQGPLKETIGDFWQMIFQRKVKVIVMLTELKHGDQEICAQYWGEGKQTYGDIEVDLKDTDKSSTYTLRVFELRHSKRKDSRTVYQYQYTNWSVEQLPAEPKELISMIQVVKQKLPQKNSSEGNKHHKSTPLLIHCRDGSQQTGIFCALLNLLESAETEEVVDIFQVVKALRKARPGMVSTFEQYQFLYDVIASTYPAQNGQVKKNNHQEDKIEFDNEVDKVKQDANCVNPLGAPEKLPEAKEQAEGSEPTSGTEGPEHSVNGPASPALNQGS
Description: (§1) The tyrosine phosphatases TC.PTP, TCΔC11.PTP, and RPTPα were purified from infected Sf9 cells as described recently (Zander et al., Biochemistry 30: 6964-6970, 1991; Daum et al., J. Biol. Chem. 266: 12211-12215, 1991). The 37 kDa form of PTP1B and CD45 were purified from placenta and spleen, respectively (according to Tonks et al., J. Biol. Chem. 263: 6722-6730, 1988; Tonks et al., Biochemistry 27: 8695-8701, 1988).
(§2) Phosphatase assays with ENDY(P)INASL were performed in buffer M6. Aliquots of 30 μl or 60 μl containing the phosphopeptide, the phosphatase (-beads) and effectors were incubated for 10 minutes at 30° C. The reaction was stopped by adding 200 μl of a suspension of 10% activated, acid-washed Norit A charcoal (v/v) in 0.9N HCl, 0.1M pyrophosphate and 2 mM NaH2 PO4 (according to Streuli et al., Proc. Natl. Acad. Sci. USA 86: 8698-8702, 1989). The mixture was cleared by 10-minute centrifugation and the radioactivity of 150 μl of the supernate was determined. Assays with MBP and RCML were performed as described in Tonks et al., J. Biol. Chem. 263: 6722-6730, 1988. Protein concentration was determined with BSA as standard (Bradford, Anal. Biochem. 72: 248-254, 1976).

TCΔC11.PTP = target: T2, TCΔC11.PTP (Homo sapiens, UniProt P17706)
T2 construct: both the wild type and truncated forms of the T-cell phosphatase; made in house; host or cells: Sf9 cells (baculovirus)
T2 sequence (P17706 1-317 limits assumed): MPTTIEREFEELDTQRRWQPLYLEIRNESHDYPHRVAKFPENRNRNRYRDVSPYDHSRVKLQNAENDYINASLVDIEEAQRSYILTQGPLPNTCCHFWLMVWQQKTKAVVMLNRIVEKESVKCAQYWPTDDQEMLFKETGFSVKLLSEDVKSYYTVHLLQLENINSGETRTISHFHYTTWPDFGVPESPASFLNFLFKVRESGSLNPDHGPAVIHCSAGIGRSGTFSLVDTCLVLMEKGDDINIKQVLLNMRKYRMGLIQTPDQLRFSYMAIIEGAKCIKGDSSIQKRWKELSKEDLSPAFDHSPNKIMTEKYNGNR
Description: as §1, §2

RPTPα = target: T3, RPTPα (Homo sapiens, UniProt P18433)
T3 construct: made in house; host or cells: Sf9 cells (baculovirus)
T3 sequence (P18433 20-802): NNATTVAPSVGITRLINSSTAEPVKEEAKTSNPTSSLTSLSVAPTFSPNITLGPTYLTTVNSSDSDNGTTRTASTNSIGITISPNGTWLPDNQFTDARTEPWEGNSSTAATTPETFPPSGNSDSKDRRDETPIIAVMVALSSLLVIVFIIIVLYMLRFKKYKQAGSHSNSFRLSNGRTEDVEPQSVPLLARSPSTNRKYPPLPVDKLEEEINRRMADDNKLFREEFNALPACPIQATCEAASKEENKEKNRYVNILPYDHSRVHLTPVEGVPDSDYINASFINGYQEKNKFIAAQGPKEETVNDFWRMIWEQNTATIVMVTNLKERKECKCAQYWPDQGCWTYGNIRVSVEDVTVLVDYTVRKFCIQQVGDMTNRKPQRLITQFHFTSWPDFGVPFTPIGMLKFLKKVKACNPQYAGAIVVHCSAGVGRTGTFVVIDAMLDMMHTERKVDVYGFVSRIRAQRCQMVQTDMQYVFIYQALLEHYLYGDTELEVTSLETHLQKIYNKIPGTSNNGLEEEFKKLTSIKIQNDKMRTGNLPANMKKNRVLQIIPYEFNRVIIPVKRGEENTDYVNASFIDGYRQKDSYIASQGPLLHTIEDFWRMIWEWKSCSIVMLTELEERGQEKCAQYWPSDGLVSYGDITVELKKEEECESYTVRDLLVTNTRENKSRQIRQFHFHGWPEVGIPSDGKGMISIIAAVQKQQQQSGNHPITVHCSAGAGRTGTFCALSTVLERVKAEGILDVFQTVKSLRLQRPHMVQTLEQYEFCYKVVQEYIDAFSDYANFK
Description: as §1, §2

TC.PTP = target: T4, TC.PTP (Homo sapiens, UniProt P17706); settings: TC.PTP
T4 construct: made in house; host or cells: Sf9 cells (baculovirus)
T4 sequence (P17706 1-415): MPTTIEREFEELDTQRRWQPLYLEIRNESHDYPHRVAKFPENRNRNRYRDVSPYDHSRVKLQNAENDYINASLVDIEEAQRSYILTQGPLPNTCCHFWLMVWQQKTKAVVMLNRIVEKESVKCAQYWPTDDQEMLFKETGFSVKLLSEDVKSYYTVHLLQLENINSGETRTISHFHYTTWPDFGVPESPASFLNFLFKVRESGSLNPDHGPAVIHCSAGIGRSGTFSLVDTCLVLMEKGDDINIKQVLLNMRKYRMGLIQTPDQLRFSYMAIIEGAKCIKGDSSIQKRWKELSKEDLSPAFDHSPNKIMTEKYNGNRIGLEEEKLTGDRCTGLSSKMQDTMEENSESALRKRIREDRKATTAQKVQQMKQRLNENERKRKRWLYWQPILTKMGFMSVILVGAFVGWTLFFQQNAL
Description: as §1, §2

PTP1B = target: T5, PTP1B (Homo sapiens, UniProt P18031)
T5 construct: The 37 kDa form of PTP1B; from tissue; host or cells: placenta
T5 sequence (P18031 1-321 limits assumed): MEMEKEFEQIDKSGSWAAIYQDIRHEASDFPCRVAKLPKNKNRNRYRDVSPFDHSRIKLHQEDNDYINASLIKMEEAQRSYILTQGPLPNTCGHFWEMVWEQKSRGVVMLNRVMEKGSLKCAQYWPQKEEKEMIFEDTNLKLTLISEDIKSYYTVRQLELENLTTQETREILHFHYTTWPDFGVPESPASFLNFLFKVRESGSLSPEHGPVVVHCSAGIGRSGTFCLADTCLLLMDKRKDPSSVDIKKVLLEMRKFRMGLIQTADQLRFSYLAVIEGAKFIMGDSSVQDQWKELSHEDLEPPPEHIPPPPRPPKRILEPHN
Description: as §1, §2

Structure (SMILES)	Phosphatase activity in percent of the value obtained in the absence of effectors (CD45; effector 1.0 mM) [%]	Phosphatase activity in percent of the value obtained in the absence of effectors (CD45; effector 3.0 mM) [%]	Phosphatase activity in percent of the value obtained in the absence of effectors (CD45; effector 5.0 mM) [%]	Phosphatase activity in percent of the value obtained in the absence of effectors (TCΔC11.PTP; effector 1.0 mM) [%]	Phosphatase activity in percent of the value obtained in the absence of effectors (TCΔC11.PTP; effector 3.0 mM) [%]	Phosphatase activity in percent of the value obtained in the absence of effectors (TCΔC11.PTP; effector 5.0 mM) [%]	Phosphatase activity in percent of the value obtained in the absence of effectors (RPTPα; effector 1.0 mM) [%]	Phosphatase activity in percent of the value obtained in the absence of effectors (RPTPα; effector 3.0 mM) [%]	Phosphatase activity in percent of the value obtained in the absence of effectors (RPTPα; effector 5.0 mM) [%]	Phosphatase activity in percent of the value obtained in the absence of effectors (TC.PTP; effector 1.0 mM) [%]	Phosphatase activity in percent of the value obtained in the absence of effectors (TC.PTP; effector 3.0 mM) [%]	Phosphatase activity in percent of the value obtained in the absence of effectors (TC.PTP; effector 5.0 mM) [%]	Phosphatase activity in percent of the value obtained in the absence of effectors (PTP1B; effector 1.0 mM) [%]	Phosphatase activity in percent of the value obtained in the absence of effectors (PTP1B; effector 3.0 mM) [%]	Phosphatase activity in percent of the value obtained in the absence of effectors (PTP1B; effector 5.0 mM) [%]	also measured
CC[C@H](C)[C@H](NC(=O)[C@H](Cc1ccc(O)cc1)NC(=O)[C@H](CC(=O)O)NC(=O)[C@H](CC(N)=O)NC(=O)[C@@H](N)CCC(=O)O)C(=O)N[C@@H](CC(N)=O)C(=O)N[C@@H](C)C(=O)N[C@@H](CO)C(=O)N[C@@H](CC(C)C)C(=O)O (H-ENDYINASL-OH)																Phosphatase activity in percent of the value obtained in the absence of effectors (CD45; effector 60 μM): 99%; Phosphatase activity in percent of the value obtained in the absence of effectors (CD45; effector 110 μM): 92%; Phosphatase activity in percent of the value obtained in the absence of effectors (CD45; effector 210 μM): 83%; Phosphatase activity in percent of the value obtained in the absence of effectors (TCΔC11.PTP; effector 60 μM): 71%; Phosphatase activity in percent of the value obtained in the absence of effectors (TCΔC11.PTP; effector 110 μM): 55%; Phosphatase activity in percent of the value obtained in the absence of effectors (TCΔC11.PTP; effector 210 μM): 46%; Phosphatase activity in percent of the value obtained in the absence of effectors (RPTPα; effector 60 μM): 76%; Phosphatase activity in percent of the value obtained in the absence of effectors (RPTPα; effector 110 μM): 54%; Phosphatase activity in percent of the value obtained in the absence of effectors (RPTPα; effector 210 μM): 30%; Phosphatase activity in percent of the value obtained in the absence of effectors (TC.PTP; effector 60 μM): 92%; Phosphatase activity in percent of the value obtained in the absence of effectors (TC.PTP; effector 110 μM): 89%; Phosphatase activity in percent of the value obtained in the absence of effectors (TC.PTP; effector 210 μM): 79%; Phosphatase activity in percent of the value obtained in the absence of effectors (PTP1B; effector 60 μM): 94%; Phosphatase activity in percent of the value obtained in the absence of effectors (PTP1B; effector 110 μM): 84%; Phosphatase activity in percent of the value obtained in the absence of effectors (PTP1B; effector 210 μM): 58%
O=C(O)CN(CCN(CC(=O)O)CC(=O)O)CC(=O)O [EDTA]	96	78	76	142	109	93	115	97	86	119	104	80	139	125	110	
[Mg+2] [Mg^2+]	80	62	72	75	60	58	90	72	59	72	57	60	81	73	71	
[O]=[V]([O-])([O-])[O-] [vanadate]																Phosphatase activity in percent of the value obtained in the absence of effectors (CD45; effector 1.0 μM): 66%; Phosphatase activity in percent of the value obtained in the absence of effectors (CD45; effector 10 μM): 17%; Phosphatase activity in percent of the value obtained in the absence of effectors (CD45; effector 100 μM): 4%; Phosphatase activity in percent of the value obtained in the absence of effectors (RPTPα; effector 1.0 μM): 62%; Phosphatase activity in percent of the value obtained in the absence of effectors (RPTPα; effector 10 μM): 4%; Phosphatase activity in percent of the value obtained in the absence of effectors (RPTPα; effector 100 μM): 0%
